For data set [1] the following is noted: Liquid; for mass density: 293.15 K, 101.33 kPa, Vibrating tube method; for Normal boiling temperature: Ebulliometric method (Recirculating still).
Data set [2] in a line: refractive index (Na D-line) (dimensionless). As to conditions: 293.15 K; 101.33 kPa; Liquid; Standard Abbe refractometry.

± gives the expanded uncertainty stated by the source.

Take `CC#N` [acetonitrile]: in data set [1], the mass density was found to be 782.1 ± 1 kg/m3 and the Normal boiling temperature amounted to 81.44 ± 0.3 °C. Further, the refractive index in data set [2] was 1.3439 ± 0.0004.
With `CO` [methanol], in data set [1], the mass density is given as 791.1 ± 1 kg/m3 and the Normal boiling temperature came to 64.41 ± 0.3 °C. Also, the refractive index in data set [2] was determined as 1.3283 ± 0.0004.

As a reminder, the mass density is mass per unit of volume. As a reminder, the refractive index is the speed of light in vacuum divided by its phase velocity in the sample.
